# Source: article PMC6274922, “Defined Small Molecules Produced by Himalayan Medicinal Plants Display Immunomodulatory Properties” (International Journal of Molecular Sciences, 2018)
# Experiments:
# [1] = system: HT-29 cancer cell lines; design: method as in PMID 29555944; conditions: cited from earlier work
# [2] = system: DC2.4 murine dendritic cell line; assay type: cell-based; conditions: for Median Fluorescence Intensity (MFI) of surface MHC-I expression: representative FACS plots, DC2.4 cells, media only control MFI 732
# [3] = system: DC2.4 murine dendritic cell line; experiment: Gene expression analysis by RT-qPCR in DC2.4 cells; assay type: cell-based, mouse; conditions: for modulation of gene expression, in words: DC2.4 cells, mRNA correlated with FACS RFI (Figure 3)
# Procedure: The following day, cells were harvested and 20,000 live cells from each condition were sorted by FACS into RLT buffer and RNA extracted for mRNA analysis by RT-qPCR. The relative gene expression for each gene was calculated for each compound and compared to the media control. We then correlated gene expression with protein expression represented by the FACS RFI (Figure 3). […] The SUM of the changes for all genes and proteins relative to the media-only control is summarized in the bottom right corner of Figure 3 SUM.
# DC2.4 cells were co-cultured overnight with test compounds as described above. The following day, cells were harvested and 20,000 live cells from each condition were sorted by FACS into RLT buffer and stored at −70 °C. On the day of extraction, frozen cell lysates were thawed quickly on ice and mRNA was extracted using the RNEasy micro kit (Qiagen, Chadstone Centre, VIC, Australia) according to the manufacturer’s instructions. cDNA was synthesized using oligo-dT and AMVRT (Promega, Sydney, Australia) according to the manufacturer’s instructions. Gene expression was measured using individual Taqman gene expression assays (Applied Biosystems, Foster City, CA, USA) and Platinum Taq polymerase (Life Technologies, Carlsbad, CA, USA) in a 15 μL volume reaction using a Rotorgene 3000 PCR machine (Corbett Research, Mortlake, Australia) with the following conditions: 2 min at 50 °C for calibration of fluorescence gain values, then denaturing at for 2 min at 95 °C, followed by 45 cycles of 5 s at 95 °C and 30 s at 60 °C. Gene expression was quantified relative to a standard curve generated from a titration of cloned cDNA and relative gene expression was calculated by dividing the expression value of the test sample by that of the cells grown in media only. All assays were conducted in triplicate.
# [4] = system: multi-drug resistant Plasmodium falciparum; conditions: cited from earlier work
# [5] = system: lung carcinoma (A549); design: method as in PMID 29555944; conditions: cited from earlier work
# [6] = system: HL60; design: method as in PMID 9584334; conditions: in vitro; cited from earlier work
# [7] = system: A431 epithelial cancer cell lines; design: method as in PMID 9584334; conditions: in vitro; cited from earlier work
# [8] = Cytotoxicity by xCELLigence RTCA system; conditions: human
# Procedure: (§1) The immortalized non-malignant human cholangiocyte cell line H69 is a SV40-transformed human bile duct epithelial cell line originally derived from a normal liver harvested for transplantation. […] Cytotoxicity screening of the test compounds against the H69 cell line was performed using an xCELLigence SP system (ACEA Biosciences Inc., San Diego, CA, USA) as described by us previously. All experiments were carried out as per the manufacturer’s instructions with 0.25–60 min read intervals using the real time cell assay (RTCA) software (ACEA Biosciences Inc., USA). All assays were conducted in triplicate. Inter-well spaces were filled with 100 µL of culture medium or PBS to prevent evaporation. The E-plates containing cells were seeded at 5000 cells/well and incubated overnight at 37 °C with 5% CO2. The cells were then treated with prepared concentrations (50, 100, 500 µg/mL) of the test compounds and the viability of the cells was monitored continually for 24 h.
# (§2) We determined the IC50 values of test compounds based on the normalised cell index (nCI) for cells, as described previously. Briefly, the 24 h nCI relative to the negative DMSO treated controls (deemed 100%) on the y-axis was plotted against the log concentration value x-axis.
# [9] = system: immortalized non-cancerous H69 human cholangiocyte cell line; experiment: Cytotoxicity by xCELLigence RTCA system
# Procedure: as §1, §2
# [10] = system: DC2.4 murine dendritic cell line; experiment: Combined FACS + PCR score of immunomodulation in DC2.4 cells; assay type: cell-based, mouse
# Procedure: The following day, cells were harvested and 20,000 live cells from each condition were sorted by FACS into RLT buffer and RNA extracted for mRNA analysis by RT-qPCR. The relative gene expression for each gene was calculated for each compound and compared to the media control.
# DC2.4 cells (4000 cells in exponential phase/200 µL) were cultured in 96-well flat bottom plates overnight with a titration of the test compound in media (stock concentration of 1 mg/mL and further titrated in tissue culture media at 4 mid-log dilutions starting at 100 µg/mL) or media only (modified DMEM, 50 µM 2-mercaptoethanol and 216 mg/L L-glutamine, 10% heat-inactivated FCS). Each compound was tested twice, in replicate assays. […] The RFI (relative fluorescence intensity) for each parameter was calculated by dividing the median fluorescence intensity (MFI) of the test sample by that of the control (media-only) samples.
# DC2.4 cells were co-cultured overnight with test compounds as described above. […] Gene expression was quantified relative to a standard curve generated from a titration of cloned cDNA and relative gene expression was calculated by dividing the expression value of the test sample by that of the cells grown in media only. […]
compound,measurement,setting,value
"COc1cc2c(cc1O)[C@@H]1Cc3ccc(OC)c(O)c3CN1CC2 [Compound 10, scoulerine]","cytotoxic activity, in words",[1],significant cytotoxic activity
same,Median Fluorescence Intensity (MFI) of surface MHC-I expression,[2],1582
same,"modulation of gene expression, in words",[3],"strong up-regulator of several important genes including MHC-I, CD80 and CD86"
same,"antimalarial activity, in words",[4],potent antimalarial drug lead compound
same,"cytotoxic activity, in words",[5],significant cytotoxic activity
"COc1c2ccoc2cc2oc(=O)ccc12 [Compound 13, bergapten]","anti-proliferative activity, in words",[6],anti-proliferative activity
same,"anti-proliferative activity, in words",[7],anti-proliferative activity
same,Median Fluorescence Intensity (MFI) of surface MHC-I expression,[2],304
same,"modulation of gene expression, in words",[3],"suppression of expression of some genes, and notably MHC-I at both the gene and protein level"
same,IC50 at 24 h,[8],126 µg/mL
"O=c1cc(-c2ccc(O)c(O)c2)oc2cc(O)cc(O)c12 [Compound 6, luteolin]",IC50 at 24 h,[8],30 µg/mL
"CC#CC#C/C=C1\C=CC2(CCCO2)O1 (centres unmarked) [Compound 5, (E)-spiroether]",IC50 at 24 h,[8],< 1 µg/mL
same,cell death,"[9]; H69 cells, from 6 h with 100 µg/mL",96.5%
protopine [Compound 8],FACS SUM,[2]; sum of the RFI of the 7 surface markers,9.95
same,PCR SUM,[3]; sum of the relative expression of the 7 genes,10.01
same,IC50 (cytotoxicity),[9],9 µg/mL
same,cell toxicity,"[9]; H69 cells, at 24 h",68%
same,cell toxicity,"[9]; H69 cells, from 6 h",23%
same,Ave.,[10]; average of FACS and PCR values,1.43
same,SUM FACS + PCR,[10]; sum of all FACS RFI and PCR relative expression values,19.96
